Measured values published in PubChem BioAssay AID179 (DTP/NCI, 2004).
Where “and” joins values, the source holds several entries; their conditions need not be identical. Identical values can stand only once. Calls of active or inactive are those of the source.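 Rule for the calls: active = compounds giving half or more protection of infected cells from virus-caused growth loss, again on retest; inactive = the rest.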

System: CEM cells HIV-1 protection, formazan growth assay
Assay: NCI AIDS Antiviral Assay
Settings: for IC50: measured here: growth of uninfected CEM cells
Outline: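 CEM (human) cells, HIV-1 infected vs uninfected, 5-point dosing, formazan growth read-out. Retest threshold 50% protection.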

SMILES | EC50 | IC50 | outcome
Nc1cccc2cn[nH]c12 | > 1480 µM | 229 µM | –
N#Cc1sc2c(c1O)c(=O)n(-c1ccccc1)c(=S)n2-c1ccccc1 | > 661 µM | 30.9 µM | –
CN(/N=C/c1cccc2cccnc12)c1ccc(Cl)cc1[N+](=O)[O-] | > 200 µM | 178 µM | –
CCOC(=O)OC1(c2ccccc2)CCN(C)CC1 | > 200 µM | > 200 µM | –
C/C=C/C=Nc1c(C#N)c2n(c1C(=O)Nc1ccccc1)CCC2 | > 100 µM | > 100 µM | –
O=C1CCCc2ccc([N+](=O)[O-])c(O)c21 | – | – | inactive
Cc1ccc(S(=O)(=O)/N=C2/N(C)CCCS2(=O)=O)cc1 | > 200 µM | > 200 µM | –
[Cl][Ni+2][Cl].[NH-]CCN1CC1 | > 200 µM | 40.7 µM | –
COC(=O)c1oc([N+](=O)[O-])c(Cl)c1Cl | > 151 µM | 0.776 µM | –
CNC(=S)/C(C#N)=C(\N)N1CCCC1 | > 200 µM | > 200 µM | –
C1CCN2CC34CC(CC5CCCN(C6CCCC3N6)C54)C2C1 (centres undefined) | > 309 µM | > 309 µM | –
NC1CC(=O)c2c(Br)csc21 (centres undefined) | > 200 µM | 50.1 µM | –
COc1ccc(NC(C)=O)cc1N1C(=O)/C(=C\c2cccc(Oc3ccccc3)c2)S(=O)(=O)C1c1ccccc1 (centres undefined) | > 200 µM | 33.1 µM | –
CC1(C)N=C(C(=O)c2ccccc2)N(O)C1(O)c1ccccc1 (centres undefined) | > 200 µM | 135 µM | –
Cc1cn(C2CC(NC(=O)NO[Si](C)(C)C(C)(C)C)C(CO[Si](C)(C)C(C)(C)C)O2)c(=O)[nH]c1=O (centres undefined) | > 200 µM | 95.5 µM | –
Cc1cc(S(N)(=O)=O)c(SCc2nc(N)nc(N(C)C)n2)cc1Cl | > 200 µM | > 200 µM | –
NC(=O)c1nc(C2OC(CO)C(O)C2O)cs1 (centres undefined) | > 200 µM | > 200 µM | –
CN=C(NC(=S)N(C)C)N(C)C | – | – | inactive
CC(C)(C)c1cc(C(=O)/C=C/c2ccc(C(=O)O)cc2)cc(C(C)(C)C)c1 | > 15.1 µM | 8.32 µM | –

SMILES | EC50 | IC50 | outcome
O=[N+]([O-])/C=C1\COCc2cc3c(cc21)OCO3 | > 200 µM | 28.8 µM | –
Cc1cc(C)n2nc(N)c(C#N)c2c1C#N | > 12.9 µM | > 12.9 µM | –
CC1(C)CCCOc2ccc(C(=O)O)cc21 | > 200 µM | > 200 µM | –
CCOC(=O)CCC(NC(=O)c1ccc(Oc2nc3ccccc3nc2-c2ccccc2)cc1)C(=O)OCC (centres undefined) | > 200 µM | > 200 µM | –
CC(CC1c2ccccc2CCc2ccccc21)CN(C)C (centres undefined) | > 200 µM | 33.1 µM | –
CC(Nc1cc(Cl)cc(Cl)c1)c1ccncc1 (centres undefined) | > 200 µM | 15.8 µM | –
C[Si]1(C)C(c2ccccc2)=CC2C(c3ccccc3)(c3ccccc3)OC21c1ccccc1 (centres undefined) | > 4.27 µM | 1.17 µM | –
C#CCN1C(=O)c2ccccc2S1(=O)=O | > 200 µM | > 200 µM | –
O=C(Cc1cc[n+]([O-])cc1)C(=O)Nc1cc(Cl)c(Cl)cc1Cl | > 692 µM | 631 µM | –
Cn1c(=N)n[n+]([O-])c2ccccc21 | > 200 µM | 3.47 µM and 4.07 µM | –
[O-][n+]1ccccc1CCN(O)Cc1ccccc1 | > 200 µM | > 200 µM | –
O=S(=O)(c1ccccc1)S(=O)(=O)c1ccccc1 | > 47.9 µM | > 47.9 µM | –
O=C(c1ccccc1)C(c1ccccc1)C1(O)C(=O)Nc2c(Cl)ccc(Cl)c21 (centres undefined) | > 17.4 µM | > 17.4 µM | –
CNC(=S)Nc1sc2c(c1C#N)CCCC2 | 148 µM | 151 µM | –
O=C1NCCCCC1CCCC#Cc1ccccc1 (centres undefined) | > 74.1 µM | 45.7 µM | –
Cc1cccc(N=NC(=O)NNc2cccc(C)c2C)c1C | > 200 µM | 70.8 µM | –
CC(=O)N(CC1CCCN(C)C1)C12CC3CC(CC(C3)C1)C2 (centres undefined) | > 117 µM | > 117 µM | –
CCC12C=CCN3CCC4(C(=C(C(=O)OC)[C@@H]1O)Nc1ccccc14)C32 (some centres undefined) | > 141 µM | 2.34 µM | –
N[C@@H]1C[C@H](N)c2c(Cl)sc(Cl)c21 | > 200 µM | 141 µM | –
